Experimental data reported in article PMC6567057, “Pharmacokinetic, metabolic stability, plasma protein binding and CYP450s inhibition/induction assessment studies of N-(2-pyridylmethyl)-2-hydroxiymethyl-1-pyrrolidinyl-4-(3-chloro-4-methoxy-benzylamino)-5-pyrimidine-carboxamide as potential type 5 phosphodiesterase inhibitors” (Animal Cells and Systems, 2019).

Legend:
rat plasma proteins = assay: Plasma protein binding by equilibrium dialysis (rat); format: in vitro ADME, Sprague–Dawley rat; conditions: rat plasma, mean of 0.2 and 1 µM
Experimental: The phosphate buffer (100 mM) and sodium hydroxide solution (1.0 M) were prepared in deionized water. […] PPB was determined by equilibrium dialysis method. An aliquot (150 μL) of NHPPC spiked plasma and phosphate buffer (pH 7.4) was added into the donor side and the receiver side of each designated well. The plate was covered with adhesive sealing film to prevent evaporation and placed in a water-bath shaker kept at 37°C for 6 h with a rate of 50 rpm. […] At the end of 6 h, aliquots were taken from each side of each well (n = 3) and kept in a −20°C freezer prior to analysis. The stability, device recovery and PPB were calculated using the following equations: Remaining at 6 h (%)=C6h/C0h×100%, Device recovery (%)=CDonor+CReceiver/C6h×100%, PPB (%)=CDonor−CReceiver/CDonor×100%.

[1] = In vitro metabolic stability in rat liver microsomes; format: in vitro ADME; conditions: for remaining at 1 h, 1 µM: liver microsomes, pH 7.4, rat liver microsomes, 60 min, read-out: percent remaining
Experimental: (§1) The phosphate buffer (pH 7.4, 100 mM) and (300 mM) were prepared in deionized water. NADP and IA were dissolved in phosphate buffer and MgCl2 solution and then added 20 μL IDH (18 units/mg protein) and mixed. NHPPC (1 mM) and positive control drug were prepared by dilution using DMSO and then the NHPPC and positive control drug working solution (50 μM) were obtained by dilution using methanol: H2O (1:1, v/v) mixture. Pooled human, rat and dog liver microsomes were added to phosphate buffer pH7.4 to a concentration 20 mg/mL. NHPPC was incubated with liver microsomes. The incubation solution of the final reaction conditions contained 50 mM potassium phosphate buffer (pH 7.4), 0.5 mg protein/mL microsomes, 3 mM MgCl2, 2 mM NADPH and 1 μM NHPPC or positive control drug in a final volume of 100 μL. In sample and positive control groups, NADPH was added into the incubation solutions. In the negative control group, water (the replacement of NADPH) was added into the incubation solutions. Samples were incubated aerobically in a shaking water bath at 37°C and the reaction was terminated by adding 300 μL of ice cold acetonitrile (contain 100 ng/mL IS) at different interval 0, 5, 10, 20, 30 and 60 min. While positive control and negative control were incubated aerobically in a shaking water bath at 37°C for 0 and 60 min, respectively. NHPPC and control concentrations were determined by LC-MS/MS at each time point (n = 3). Calculation of t1/2 and CLint was performed by using following equations, where K is the elimination rate constant (min^−1) and QH is hepatic blood flow (mL/min/kg). t1/2=0.693/KCLint,in vitro=VD×KVD=Volume of reaction mixture(mL)/mg of protein per reation.
(§2) Hepatic intrinsic clearance was estimated by using the scaling factors and calculated by using the following equation (Lave et al. [1997]). CLint,in vivo=CLint×mg microsomal protein per liver×g liver per kg body weight, Cint,H=CLint,in vivo×QH/CLint,in vivo+QH,EH=CLint,H/QH.

[2] = In vitro metabolic stability in human liver microsomes; format: in vitro ADME; conditions: for remaining at 1 h, 1 µM: liver microsomes, pH 7.4, human liver microsomes, 60 min, read-out: percent remaining
Experimental: as §1, §2

CYP1A2 = molecular target: T1, CYP1A2 (Homo sapiens, UniProt P05177); assay: CYP isozyme inhibition in human liver microsomes; format: in vitro ADME; conditions: calculated from inhibition at 3 μM
T1 construct: tissue BD Gentest; host or cells: pooled human liver microsomes
T1 sequence (P05177 1-516): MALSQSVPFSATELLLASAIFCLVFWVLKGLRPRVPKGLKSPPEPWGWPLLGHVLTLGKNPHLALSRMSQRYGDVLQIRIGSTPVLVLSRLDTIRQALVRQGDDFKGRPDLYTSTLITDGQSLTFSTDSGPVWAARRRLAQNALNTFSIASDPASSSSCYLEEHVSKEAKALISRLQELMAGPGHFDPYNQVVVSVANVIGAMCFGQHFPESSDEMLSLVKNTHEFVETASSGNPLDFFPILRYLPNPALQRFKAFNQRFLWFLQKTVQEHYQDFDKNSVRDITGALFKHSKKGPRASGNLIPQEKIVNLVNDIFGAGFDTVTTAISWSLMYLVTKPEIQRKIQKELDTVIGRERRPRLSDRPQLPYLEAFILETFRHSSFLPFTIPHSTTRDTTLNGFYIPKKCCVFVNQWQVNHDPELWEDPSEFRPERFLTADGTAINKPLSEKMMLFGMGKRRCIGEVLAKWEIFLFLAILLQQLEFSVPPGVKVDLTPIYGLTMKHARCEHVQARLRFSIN
Experimental: (§3) The stock solutions of the probe substrates phenacetin (20.0 mM), diclofenac (20.0 mM), S-mephenytoin (30 mM), dextromethorphan (10.0 mM), midazolam (10.00 mM) and testosterone (50.0 mM) were prepared using methanol, while α-Naphtoflavone (3.0 mM), sulfaphenazole (3.0 mM), N-3-benzylnirvanol (3.0 mM), quinidine (3.0 mM), ketoconazole (3.0 mM) and NHPPC (10.0 mM) were prepared using DMSO, and diluted with phosphate buffer (PB, 100 mM, pH 7.4) before added into the incubation system. The organic solvents in the final incubate were no more than 0.20%. The incubation medium was 100 mM phosphate buffered saline, and the final incubation volume was 200 μL containing 25 pmol/mL human liver microsomes CYP enzyme, probe substrate, 1 mM NADPH and NHPPC at 3.00 μM. The reactions were initiated after 5 min pre-incubation at 37°C and were terminated by the addition of 400 μL ice-cold acetonitrile. All incubations were conducted in triplicate, and the samples were stored at −80°C until analysis. Calculation of IC50 was performed by using following equations, where C is concentration of test compounds.

CYP2C19 = molecular target: T2, CYP2C19 (Homo sapiens, UniProt P33261); assay: CYP isozyme inhibition in human liver microsomes; format: in vitro ADME; conditions: calculated from inhibition at 3 μM
T2 construct: tissue BD Gentest; host or cells: pooled human liver microsomes
Experimental: as §3

CYP2C9 = molecular target: T3, CYP2C9 (Homo sapiens, UniProt P11712); assay: CYP isozyme inhibition in human liver microsomes; format: in vitro ADME; conditions: calculated from inhibition at 3 μM
T3 construct: tissue BD Gentest; host or cells: pooled human liver microsomes
Experimental: as §3

CYP2D6 = molecular target: T4, CYP2D6 (Homo sapiens, UniProt P10635); assay: CYP isozyme inhibition in human liver microsomes; format: in vitro ADME; conditions: calculated from inhibition at 3 μM
T4 construct: tissue BD Gentest; host or cells: pooled human liver microsomes
Experimental: as §3

CYP3A4 = molecular target: T5, CYP3A4 (Homo sapiens, UniProt P08684); assay: CYP isozyme inhibition in human liver microsomes; format: in vitro ADME; conditions: calculated from inhibition at 3 μM
T5 construct: tissue BD Gentest; host or cells: pooled human liver microsomes
Experimental: as §3

T5 sequence (P08684 whole entry): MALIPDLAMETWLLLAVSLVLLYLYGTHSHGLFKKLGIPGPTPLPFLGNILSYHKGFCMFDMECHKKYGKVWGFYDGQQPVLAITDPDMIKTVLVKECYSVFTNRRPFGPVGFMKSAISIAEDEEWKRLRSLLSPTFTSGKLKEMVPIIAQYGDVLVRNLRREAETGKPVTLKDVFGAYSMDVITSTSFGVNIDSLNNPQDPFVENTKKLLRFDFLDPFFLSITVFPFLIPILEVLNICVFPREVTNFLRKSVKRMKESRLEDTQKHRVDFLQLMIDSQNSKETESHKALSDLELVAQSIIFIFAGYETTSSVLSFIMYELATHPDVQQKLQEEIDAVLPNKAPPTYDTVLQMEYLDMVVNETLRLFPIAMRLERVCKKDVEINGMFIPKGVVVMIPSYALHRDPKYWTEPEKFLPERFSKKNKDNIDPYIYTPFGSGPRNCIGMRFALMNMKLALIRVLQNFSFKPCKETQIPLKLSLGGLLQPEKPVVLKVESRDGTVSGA
T2 sequence (P33261 whole entry): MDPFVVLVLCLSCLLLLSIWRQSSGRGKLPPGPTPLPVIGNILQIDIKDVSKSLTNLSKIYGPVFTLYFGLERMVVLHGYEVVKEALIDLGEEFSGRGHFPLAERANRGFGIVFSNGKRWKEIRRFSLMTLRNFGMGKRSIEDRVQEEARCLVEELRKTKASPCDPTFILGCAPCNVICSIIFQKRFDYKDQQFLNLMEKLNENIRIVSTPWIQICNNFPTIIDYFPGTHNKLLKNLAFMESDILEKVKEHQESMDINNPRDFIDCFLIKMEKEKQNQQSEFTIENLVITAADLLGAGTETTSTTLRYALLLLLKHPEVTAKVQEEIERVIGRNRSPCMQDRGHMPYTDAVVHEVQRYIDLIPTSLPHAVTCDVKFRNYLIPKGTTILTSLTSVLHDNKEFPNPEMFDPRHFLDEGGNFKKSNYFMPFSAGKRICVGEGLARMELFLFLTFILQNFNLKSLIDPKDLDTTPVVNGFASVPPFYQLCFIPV
T3 sequence (P11712 whole entry): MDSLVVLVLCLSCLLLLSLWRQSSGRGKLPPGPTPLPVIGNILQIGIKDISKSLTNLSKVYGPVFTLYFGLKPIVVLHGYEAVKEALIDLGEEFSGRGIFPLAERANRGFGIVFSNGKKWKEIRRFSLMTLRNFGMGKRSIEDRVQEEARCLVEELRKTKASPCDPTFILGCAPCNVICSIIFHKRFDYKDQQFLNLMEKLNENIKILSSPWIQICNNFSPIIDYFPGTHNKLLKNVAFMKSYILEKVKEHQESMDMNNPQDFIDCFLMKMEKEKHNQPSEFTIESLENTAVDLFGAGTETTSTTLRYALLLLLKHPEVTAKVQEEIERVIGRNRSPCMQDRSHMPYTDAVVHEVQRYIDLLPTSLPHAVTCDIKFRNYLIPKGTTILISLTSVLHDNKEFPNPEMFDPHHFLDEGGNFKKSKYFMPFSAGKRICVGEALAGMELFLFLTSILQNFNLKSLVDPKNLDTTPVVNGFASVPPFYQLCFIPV
T4 sequence (P10635 whole entry): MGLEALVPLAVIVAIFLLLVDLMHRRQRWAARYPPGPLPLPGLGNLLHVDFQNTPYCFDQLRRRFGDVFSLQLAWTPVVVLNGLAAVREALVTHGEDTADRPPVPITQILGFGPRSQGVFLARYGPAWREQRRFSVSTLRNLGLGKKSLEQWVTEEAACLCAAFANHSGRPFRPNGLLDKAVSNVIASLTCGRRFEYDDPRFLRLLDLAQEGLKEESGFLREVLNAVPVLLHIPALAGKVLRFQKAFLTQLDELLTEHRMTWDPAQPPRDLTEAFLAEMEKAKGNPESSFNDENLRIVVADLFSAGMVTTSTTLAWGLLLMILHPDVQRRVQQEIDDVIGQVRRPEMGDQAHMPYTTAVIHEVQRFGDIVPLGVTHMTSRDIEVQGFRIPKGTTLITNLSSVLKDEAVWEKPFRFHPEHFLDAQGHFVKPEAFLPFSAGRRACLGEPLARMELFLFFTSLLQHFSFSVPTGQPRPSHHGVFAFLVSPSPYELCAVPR

Mean PPB % (rat plasma proteins): 96.2 ± 0.18%
half-life at 1 µM ([1]; pH 7.4, rat liver microsomes): 42.5 min
microsomal CLint at 1 µM ([1]; pH 7.4, rat liver microsomes, read-out: CLint, ivtro): 23.3 µL/min/mg
k el at 1 µM ([1]; pH 7.4, rat liver microsomes, read-out: Ke (converted)): 0.000272 s⁻¹
remaining at 1 h, 1 µM ([1]; rat, in the presence of NADPH, 1 μM): 42.8%
remaining at 1 h, 1 µM ([1]; rat, without NADPH regenerating system): 102%
ranking for clearance ([1]; rat, ranking criteria of Houston 1994, Kerns and Di 2008): middle clearance
CLH ([1]; rat, scaled from liver microsomes): 27.5 mL/min/kg
remaining at 1 h, 1 µM ([2]; human, in the presence of NADPH, 1 μM): 42%
remaining at 1 h, 1 µM ([2]; human, without NADPH regenerating system): 99.4%
ranking for clearance ([2]; human, ranking criteria of Houston 1994, Kerns and Di 2008): middle clearance
CLH ([2]; human, scaled from liver microsomes): 9.80 mL/min/kg
half-life at 1 µM ([2]; liver microsomes (pooled), pH 7.4, human liver microsomes): 46.2 min
microsomal CLint at 1 µM ([2]; liver microsomes (pooled), pH 7.4, human liver microsomes, read-out: CLint, ivtro): 21.4 µL/min/mg
k el at 1 µM ([2]; liver microsomes (pooled), pH 7.4, human liver microsomes, read-out: Ke (converted)): 0.00025 s⁻¹
IC50 (CYP1A2): > 100 µM
IC50 (CYP2C19): > 100 µM
IC50 (CYP2C9): 21.9 µM
IC50 (CYP2D6): > 100 µM
IC50 (CYP3A4; CYP3A4 (midazolam based)): > 100 µM
IC50 (CYP3A4; CYP3A4 (testosterone based)): > 100 µM
Compound: COc1ccc(CNc2nc(N3CCC[C@H]3CO)ncc2C(=O)NCc2ccccn2)cc1Cl [NHPPC, N-(2-pyridylmethyl)-2-hydroxiymethyl-1-pyrrolidinyl-4-(3-chloro-4-methoxy-benzylamino)-5-pyrimidine-carboxamide]
